Data set [1] concerns bone marrow cell growth (granulocyte-macrophages and erythrocytes). The settings on record: patients; cited from earlier work.
Data set [2] deals with human bone marrow cells. The data set can be described thus: toxicity for human bone marrow cells. Type of data set: cell-based.
In data set [3] the test system is human CFU-GM cells. The data set can be described thus: human CFU-GM cell proliferation. Type of data set: cell-based. The settings on record: concentrations as high as 100 μM.
For data set [4], the system named is bone marrow cells. Format: cell-based, human. The settings on record: 5 μM AZT for 2 hours; 50-100 μM of uridine (and also cytidine).
The conditions of data set [5]: in vivo; cited from earlier work.
The subject of data set [6] is viral replication (reverse transcriptase). The data set can be described thus: suppression of viral replication (assessed by inhibition of reverse transcriptase). Type of data set: cell-based. The settings on record: combination molar ratios (uridine/AZT) as high as 10,000/1.

As for `Cc1cn([C@H]2C[C@H](N=[N+]=[N-])[C@@H](CO)O2)c(=O)[nH]c1=O` [AZT, 3'-azido-3'deoxythymidine], in data set [1], the “common complication of AZT therapy” value is “suppression of bone marrow cell growth”.

As to `O=c1[nH]c(=O)n(COCCO)cc1Cc1ccccc1` [BAU, benzylacyclouridine], the “toxicity per se for human bone marrow cells” value in data set [2] is “non-toxic”. The “effect on human CFU-GM cell proliferation” value in data set [3] was “no substantial effect”.

For `Nc1ccn([C@@H]2O[C@H](CO)[C@@H](O)[C@H]2O)c(=O)n1` [cytidine], the “reversal of toxic effects of antiviral nucleoside analogues” value in data set [4] is “essentially completely reversed”.

Take `O=c1ccn([C@@H]2O[C@H](CO)[C@@H](O)[C@H]2O)c(=O)[nH]1` [uridine]: the “clearance by the body” value in data set [5] is “cleared rapidly”. Further, in data set [4], the “reversal of toxic effects of antiviral nucleoside analogues” value is recorded as “essentially completely reversed”. Besides, in data set [6], the “impairment of suppression of viral replication” value is on record as “no impairment of suppression of viral replication”.

Source of the values: US5077280A, “Treatment of viral infections” (priority 1988, dated 1991).
